Experimental data reported in patent US20030007949A1, “Adhesive treatment for tinea corporis” (CLOSURE MEDICAL CORPORATION, priority 2001, published 2003).

Assay: Observation of haloprogin / 2-octyl cyanoacrylate monomer composition after preparation
Format: physicochemical
Conditions: 30 mg haloprogin in 2 mL 2-octyl cyanoacrylate monomer, observed at about one minute and at least twenty-four hours after preparation
Protocol: A 2-octyl cyanoacrylate monomer composition is prepared by adding 30 mg of haloprogin, an anti-fungal agent, to 2 mL of 2-octyl cyanoacrylate monomer. The mixture is sealed in a glass vial and stirred. The characteristics of the composition are observed at about one minute after preparation and later at least twenty-four hours after preparation.

premature polymerization caused in the monomer: does not cause premature polymerization | solubility of haloprogin in the monomer (sealed glass vial, stirred): soluble
SMILES: Clc1cc(Cl)c(OCC#CI)cc1Cl [haloprogin]
